# Reference: patent publication US10525139B2, “Folate-conjugated molecules for delivery of toxic small molecule inhibitors to cancer cells and methods of use” (priority 2014, dated 2020)
# Entries after “also recorded” stand apart in the source; their conditions may differ.
# Legend:
# [1] = Maximal tolerated dose in mice; format: in vivo
# Procedure: Though the JQ-FT conjugate has not, as yet, been optimized for pharmacologic properties, we are eager to explore the utility of the compound as an in vivo chemical probe, while assessing putative tolerability of folate-conjugated thapsigargins. We first established the maximal tolerated dose (MTD) of JQ-FT as 60 mg/kg/day in mice, as administered by daily intraperitoneal injection. […] We therefore initiated treatment studies of JQ-FT (60 mg/kg IP daily) in mice with established T-ALL.
# PDX T-ALL cells = test: JQ-FT treatment of patient-derived xenograft (PDX) T-ALL cells in vitro; format: cell-based, human
# Procedure: Errors bars denote mean±SD of 4 replicates. […] The blot was stained with an antibody against the C-terminus of NOTCH1 that recognizes both the furin-processed NOTCH1 transmembrane subunit (TM) and the unprocessed NOTCH1 precursor (FL). The immunoblot was also stained with anti-ICN1 antibody. GAPDH was used as a loading control. […] Error bars indicate the mean±SD of 4 replicates. Data were analyzed using the ΔΔCT method and plotted as a percentage relative to the control gene RPL13A. Statistical significance among groups for treated vs. vehicle (DMSO) samples (***P≤0.0001) was determined by one-way ANOVA with Bonferroni's correction for multiple comparison testing. […] The blot was stained with an antibody against the C-terminus of NOTCH1 (N1) that recognizes both the furin-processed NOTCH1 transmembrane subunit (TM). GAPDH was used as a loading control. […] Cells were probed with an anti-NOTCH1 antibody (green) and nuclei were counterstained with DAPI. […] Error bars indicate the mean±SD of 4 replicates. Data were analyzed using the ΔΔCT method and plotted as a percentage relative to the control gene RPL13A. Statistical significance (***P≤0.001. ****P≤0.0001) for treated vs. vehicle (DMSO) was determined by one-way ANOVA with Bonferroni's correction for multiple comparison testing.
# To assess the translational significance of these findings, we studied patient-derived xenografts (PDX) from T-ALL patients at the Dana-Farber Cancer Institute.
# T-ALL cell lines [2] = test: T-ALL cell viability / growth (ATP content, Cell-Titer Glo); format: cell-based, human
# NOTCH1 [3] = test: NOTCH1 processing and activation by western blot (FL-N1, TM-N1, ICN1); format: cell-based, human; details: 24 h
# Text: (§1) We previously described that the SERCA inhibitors thapsigargin and cyclopiazonic acid impair NOTCH1 maturation leading to an accumulation of full-length, unprocessed polypeptides in the endoplasmic reticulum/Golgi subcellular compartment. An immediate consequence of SERCA inhibition is a decrement in NOTCH1 protein display on the surface of T-ALL cells. […] To further support the hypothesis that Thap-OH impairs mutant NOTCH1 maturation, we evaluated levels of full-length, transmembrane and activated NOTCH1 (ICN1) by WB. Lysates from T-ALL cell lines treated with 1 μM Thap-OH were immunoblotted with an antibody specific for the cytoplasmic portion of NOTCH1 that recognizes both unprocessed NOTCH1 (FL-N1) (˜270 kDa) and the furin-processed transmembrane subunit (TM-N1) (˜110 kDa).
# Both Folate-Thap (JQ-FT) and Thap-OH were tested in T-ALL cell lines with 24 h treatment. […] Lysates were prepared after treatment with indicated doses of thapsigargin, JQ-FT or Thap-OH for 24 hr. The blot shown was stained with an antibody against the C-terminus of NOTCH1 that recognizes both the furin-processed NOTCH1 transmembrane subunit (TM) and the unprocessed NOTCH1 precursor (FL) (FIG. 2A). GAPDH was used as a loading control. Western blots were stained with antibodies specific for γ-secretase-cleaved NOTCH 1 ([…], Cell Signaling, Beverly, Mass., USA), or the C-terminus of NOTCH1 (SC-6014 (C-20) Santa Cruz Biotechnology, Santa Cruz, Calif., USA). Control stains were carried out with antibodies specific for GAPDH (137179, Santa Cruz Biotechnology). Blots were developed with anti-rabbit-HRP (NA9340V, Amersham, Pittsburgh, Pa., USA) or anti-mouse-HRP (NA9340V or NA9310V, Amersham). Staining was quantified using ImageQuant TI V 7.0 (GE Health Care, Piscataway, N.J., USA).
# T-ALL cell lines [4] = test: T-ALL cell viability / growth (ATP content, Cell-Titer Glo); format: cell-based, human; details: for cell growth / proliferation: T-ALL cell lines, 10 μM
# Procedure: Thus, cell lines carrying NOTCH1 alleles with HD domain, mutations were more sensitive to Thap-OH than cells with WT NOTCH1 alleles.
# As a further test of the idea that JQ-FT acts by preventing NOTCH1 activation in a manner similar to thapsigargin, the NOTCH1-dependent T-ALL cell lines RPMI-8402 were transduced with empty MigRI vector or with ICN1, which lies downstream of the γ-secretase cleavage step in Notch activation. Viral supernatant production and retroviral infections were performed as described for MigRI retroviral vectors (Aster, J. C., et al. “Essential roles for ankyrin repeat and transactivation domains in induction of T-cell leukemia by NOTCH1.” Mol. Cell. Biol. 2000; 20:7505-7515). Transduction efficiency for MigRI was monitored by assessing GFP expression with a FACScan flow cytometer (BD, Franklin Lakes, N.J., USA) (Aster et al., Mol. Cell. Biol. 2000; 20:7505-7515). After viral infection, GFP-positive cells were sorted by flow cytometry with a FACSAria II (BD, Franklin Lakes, N.J., USA). […] Therefore, JQ-FT can recapitulate the Thapsigargin effect with the delivery mechanism of folate.
# (§2) The NOTCH loss was measured via flow cytometry. […] The recapitulation of the thapsigargin effect by JQ-FT is hypothesized to be due to the delivery strategy introduced by folate. […] Here cell growth was assessed using the Promega Cell-Titer Glo ATP-based assay (Promega, Madison, Wis., USA). Luminescence was measured using a Fluostar Omega instrument (BMG-labtech, Ortenberg, Germany).
# The effects of JQ-FT in a panel of T-ALL cell lines that contain activating mutations in the HD domain of NOTCH1 and/or protein stabilizing deletions within the PEST degradation domain.
# NOTCH1 [5] = test: NOTCH1 cell surface staining by flow cytometry; format: cell-based, human; details: T-ALL cells; for NOTCH1 expression on the cell surface: 24 hours
# Text: as §1, §2
# [6] = NOTCH1-mutated PDX cells, 24 hours
smiles,measurement,setting,value
C/C=C(/C)C(=O)O[C@H]1C(C)=C2C([C@@H]1OC(=O)CCCCCCC)[C@@](C)(OC(C)=O)C[C@H](OC(=O)CC[C@H](NC(=O)c1ccc(NCc3cnc4nc(N)[nH]c(=O)c4n3)cc1)C(=O)O)[C@@]1(O)[C@H]2OC(=O)[C@@]1(C)O (stereo partly shown) [JQ-FT],MTD relative to MTD of unconjugated thapsigargin,[1],150 fold
same,MTD,"[1]; mouse, in vivo, ip, daily intraperitoneal injection",60 mg/kg/day
same,ICN1 in NOTCH1-mutated PDX cells,PDX T-ALL cells; [6],depletion of detectable ICN1
same,transmembrane NOTCH1 in NOTCH1-mutated PDX cells,PDX T-ALL cells; [6],loss of transmembrane NOTCH1
same,expression of NOTCH1 target genes DTX and MYC in NOTCH1 mutant PDX samples,"PDX T-ALL cells; NOTCH1 mutant samples, 24 hours",decreased
same,NOTCH1 processing in WT NOTCH1 PDX cells,PDX T-ALL cells; PDX T-ALL cells possessing WT NOTCH1,no effect was observed
same,NOTCH1 target gene transcription in WT PDX samples,"PDX T-ALL cells; WT PDX samples, 24 hours",no transcriptional changes were observed
same,cell cycle,"T-ALL cell lines [2]; T-ALL cell lines, 10 μM",G1 cell cycle arrest
same,induction of apoptosis in T-ALL cell lines,"T-ALL cell lines [2]; T-ALL cell lines, 10 μM",rapid induction of apoptosis
same,effect on cell viability in FR-overexpressing cell lines,T-ALL cell lines [2]; cell lines overexpressing FR1 or FR2,greater effect on cell viability
same,furin-processed transmembrane NOTCH1 subunit (TM-N1) level,"NOTCH1 [3]; T-ALL cell lines with HD mutations, Thap-OH at 1 μM",loss of trans-membrane NOTCH; also recorded: decrement of transmembrane NOTCH1
same,ICN1 level,NOTCH1 [3]; T-ALL cell lines,Loss of ICN1
same,unprocessed full-length NOTCH1 (FL-N1) level,NOTCH1 [3]; T-ALL cell lines,accumulation of full length NOTCH; also recorded: accumulation of full length NOTCH1
same,rescue of loss of viability by exogenous ICN1,T-ALL cell lines [4]; RPMI 8402 transduced with MigR1-ICN1 vs empty vector,overexpressing an exogenous ICN1 partially rescues the observed phenotype; also recorded: attenuated the growth inhibitory effects of JQ-FT
same,cell growth / proliferation,T-ALL cell lines [4],impaired cell growth
same,cell growth / proliferation,T-ALL cell lines [4]; listed as Folate-Thap,antiproliferation effect; also recorded: arrest of cell proliferation
same,effect on cell surface NOTCH1 compared with thapsigargin,NOTCH1 [5],more similar to thapsigargin at 20 uM
same,NOTCH1 expression on the cell surface,NOTCH1 [5],show NOTCH loss
same,NOTCH1 expression on the cell surface,NOTCH1 [5]; listed as Folate-Thap,loss of Notch in a manner similar to thapsigargin
